The supplement of paper PMC10307832

Compound: O=C(/C=C/c1ccccc1)NC(NC(=S)Nc1cccc2cccnc12)C(Cl)(Cl)Cl [Salubrinal] + N=C(N)NC(=N)NCCc1ccccc1 [Phenformin] (partner 250 µM)
Assay: relative viability (nuclei count vs DMSO), 5 days (fraction); higher = more cells survive
Settings: first compound 8 µM
Procedure, shortened: (§1)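 Relative viability was taken as the ratio of nuclei in treated wells to nuclei in vehicle wells. Lung cancer cell lines in 1536-well plates received compounds by pin tool one day after seeding, either one drug alone or a fixed anchor-drug dose plus five library-drug doses (not always all listed) in √10 steps. Nuclei were counted on 4× images after 5 days of treatment, and values are medians of duplicate plates.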

Cell Line	relative viability
NCI-H2405	0.408
HOP-62	0.53
HCC-44	0.182
A549	0.17
SK-MES-1	0.605
LU99A	0.896
BEN	0.249
NCI-H1623	0.551
NCI-H1563	0.692

Compound: Cc1ccc2nc(NCCN)c3ncc(C)n3c2c1 + CC(=O)c1c(C)c2cnc(Nc3ccc(N4CCNCC4)cn3)nc2n(C2CCCC2)c1=O [Palbociclib] (partner 0.5 µM)
Assay: as above
Settings: first compound 0.04 µM
Procedure, shortened: as §1

Cell Line	relative viability
NCI-H522	0.83
NCI-H2342	0.626
NCI-H727	0.648
NCI-H1650	0.303
NCI-H1993	0.627
SW 1573	0.396
NCI-H838	0.216
LCLC-103H	0.463
NCI-H520	0.233
NCI-H2126	0.392
EMC-BAC-2	0.55
NCI-H2085	0.49
HCC-366	0.409
NCI-H1666	0.664
LK-2	0.502
NCI-H2087	0.253

Cell Line	relative viability
NCI-H358	0.122
NCI-H2170	0.388
H3255	0.329
COR-L23	0.383
COR-L 105	0.374
LOU-NH91	0.551
ChaGo-K-1	0.929
NCI-H1793	0.303
NCI-H2405	0.557
HOP-62	0.424
HCC-44	0.934
SK-MES-1	0.341
LU99A	0.468
BEN	0.506
NCI-H1648	0.272

Same assay, conditions: first compound 0.1265 µM

Cell Line	relative viability
NCI-H522	1.17
NCI-H2342	0.552
NCI-H1650	0.375
NCI-H1993	0.559
SW 1573	0.461
NCI-H838	0.233
LCLC-103H	0.462
NCI-H520	0.222
NCI-H2126	0.392
EMC-BAC-2	0.536
NCI-H2085	0.514
HCC-366	0.392
NCI-H1666	0.675
LK-2	0.811
NCI-H2087	0.271
NCI-H358	0.121
NCI-H2170	0.445
H3255	0.298
COR-L23	0.301
COR-L 105	0.414
LOU-NH91	0.509
ChaGo-K-1	0.919
NCI-H1793	0.328
NCI-H2405	0.511
HOP-62	0.436
HCC-44	0.94
SK-MES-1	0.298
LU99A	0.447
BEN	0.484
NCI-H1648	0.27

Same assay, conditions: first compound 0.4 µM

Cell Line	relative viability
NCI-H522	1.01
NCI-H2342	0.479
NCI-H727	0.603
NCI-H1650	0.324
NCI-H1993	0.532
SW 1573	0.399
NCI-H838	0.233
LCLC-103H	0.428
NCI-H520	0.215
NCI-H2126	0.319
EMC-BAC-2	0.509
NCI-H2085	0.465
